According to patent US12552846B2, “Modified BCL9 mimetic peptides” (Sapience Therapeutics, Inc., priority 2019, dated 2026):
Square brackets hold non-standard residues; d marks the D form. Peptide text beside a SMILES is read from it. * marks the point of attachment. dOrn = NCCC[C@@H](N)C(=O)O; Octanoyl = CCCCCCCC(=O)*

Tests used:
[1] = tested on: HL60 promyelocytic leukemia cells; assay: Cytotoxicity assay in HL60 cells (Annexin V FITC / PI flow cytometry); assay type: cell-based; details: 48 hours; for EC50: 0-80 μM, % Viability (Annexin V low, PI low)
In short: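 HL60 cells at 3.5×10^3/well in RPMI + 1.5% FBS exposed to peptides at 0-80 μM final for 48 h at 37 °C. Viability by flow cytometry after Annexin V-FITC/PI staining, gated on FSC vs SSC. % Viability is the fraction that is Annexin V^low and PI^low.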

MCF7 breast cancer cells = assay: MCF7 subcutaneous tumor model, tumor volume; assay type: in vivo, NU/J mice; details: for tumor volume relative to vehicle and to peptide control BCL-134: 1 mg/kg or 5 mg/kg s.c. three times weekly for three weeks, dosing from day 14, starting tumor about 340 mm^3, p≤0.0004
Procedure: In this experiment, we examined the effect of peptide BCL-26 on tumor volume in an MCF7 subcutaneous tumor model. Briefly, 2×10^6 MCF7 breast cancer cells, suspended 1:1 in Matrigel, were implanted via subcutaneous injection into the axilla of NU/J mice. Peptide BCL-26 was administered at a dose of 12.5 mg/kg via subcutaneous injection three times weekly for three weeks. Dosing was initiated on day 2 post tumor inoculation, with an average starting tumor volume of about 25 mm^3.
We also examined the effect of BCL9 mimetic peptides in established tumors. MCF7 cells were implanted into mice as described above. Peptide BCL-87 was administered at a dose of 5 mg/kg via subcutaneous injection three times weekly for three weeks. Dosing was initiated on day 21 post tumor inoculation, with an average starting tumor volume of about 470 mm^3.
We additionally examined the effect of different concentrations of mimetic peptides in established tumors. MCF7 cells were implanted into mice as described above. Peptides BCL-27 and BCL-87 were administered at a dose of 1 mg/kg or 5 mg/kg via subcutaneous injection three times weekly for three weeks. Dosing was initiated on day 14 post tumor inoculation, with an average starting tumor volume of about 340 mm^3.

| SMILES | EC50 [1] | further results |
| --- | --- | --- |
| CSCC[C@@H](NC(=O)[C@@H](CC(C)C)NC(=O)[C@H](N)Cc1ccccc1)C(=O)N[C@H](CCCNC(=N)N)C(=O)N[C@H](CCC(N)=O)C(=O)N[C@H](CC(C)C)C(=O)N[C@H](CC(=O)O)C(=O)N[C@H](CCCNC(=N)N)C(=O)N[C@H](CC(C)C)C(=O)N[C@@H](C(=O)N[C@H](CCC(N)=O)C(=O)N[C@H](CC(C)C)C(=O)N[C@H](C)C(=O)N[C@H](CCCCN)C(=O)N[C@H](CC(C)C)C(=O)N[C@@H](C(=O)N1CCC[C@@H]1C(=O)N[C@@H](C(=O)O)C(C)C)[C@H](C)O)[C@H](C)O [BCL-26, FLMRQLDRLTQLAKLTPV] (H-[dF][dL][dM][dR][dQ][dL][dD][dR][dL][dT][dQ][dL][dA][dK][dL][dT][dP][dV]-OH; N-terminus and C-terminus assumed) | > 10 µM | tumor volume relative to vehicle (MCF7 breast cancer cells; 12.5 mg/kg s.c. three times weekly for three weeks, dosing from day 2, starting tumor about 25 mm^3, p<0.0001): significantly reduced tumor volume |
| CC(C)C[C@@H](NC(=O)[C@@H](Cc1c[nH]c2ccccc12)NC(=O)[C@H](N)Cc1c[nH]c2ccccc12)C(=O)N[C@H](C)C(=O)N[C@H](CCCNC(=N)N)C(=O)N[C@H](CCC(N)=O)C(=O)N[C@H](CC(C)C)C(=O)N[C@H](C)C(=O)N[C@H](CCCNC(=N)N)C(=O)N[C@H](CC(C)C)C(=O)N[C@H](C)C(=O)N[C@H](CCC(N)=O)C(=O)N[C@H](CC(C)C)C(=O)N[C@H](C)C(=O)N[C@H](CCCCN)C(=O)N[C@H](CC(C)C)C(=O)N[C@@H](C(=O)N1CCC[C@@H]1C(=O)N[C@@H](C(=O)O)C(C)C)[C@H](C)O [BCL-27, WWLARQLARLAQLAKLTPV] (H-[dW][dW][dL][dA][dR][dQ][dL][dA][dR][dL][dA][dQ][dL][dA][dK][dL][dT][dP][dV]-OH; N-terminus and C-terminus assumed) | 2 to 10 µM | tumor volume relative to vehicle and to peptide control BCL-134 (MCF7 breast cancer cells): significantly reduced tumor volume |
| CC(C)C[C@@H](NC(=O)[C@@H](CCCNC(=N)N)NC(=O)[C@@H](C)NC(=O)[C@@H](CC(C)C)NC(=O)[C@@H](CCC(N)=O)NC(=O)[C@@H](CCCNC(=N)N)NC(=O)[C@@H](C)NC(=O)[C@@H](CC(C)C)NC(=O)[C@@H](Cc1c[nH]c2ccccc12)NC(=O)[C@@H](Cc1c[nH]c2ccccc12)NC(=O)CNC(=O)[C@@H](CCCNC(=N)N)NC(=O)CNC(=O)[C@@H](CC(=O)O)NC(=O)[C@@H](CO)NC(=O)[C@H]1CCCN1)C(=O)N[C@H](C)C(=O)N[C@H](CCC(N)=O)C(=O)N[C@H](CC(C)C)C(=O)N[C@H](C)C(=O)N[C@H](CCCCN)C(=O)N[C@H](CC(C)C)C(=O)N[C@@H](C(=O)N1CCC[C@@H]1C(=O)N[C@@H](C(=O)O)C(C)C)[C@H](C)O [BCL-87] (H-[dP][dS][dD]G[dR]G[dW][dW][dL][dA][dR][dQ][dL][dA][dR][dL][dA][dQ][dL][dA][dK][dL][dT][dP][dV]-OH; N-terminus and C-terminus assumed) | 2 to 10 µM | tumor volume relative to vehicle and to peptide control BCL-134 (MCF7 breast cancer cells): significantly reduced tumor volume; tumor volume relative to vehicle (MCF7 breast cancer cells; 5 mg/kg s.c. three times weekly for three weeks, dosing from day 21, starting tumor about 470 mm^3, p<0.005): significantly reduced tumor volume |
| CC(C)C[C@@H](NC(=O)[C@@H](C)NC(=O)[C@@H](C)NC(=O)[C@@H](CC(C)C)NC(=O)[C@@H](CCC(N)=O)NC(=O)[C@@H](C)NC(=O)[C@@H](C)NC(=O)[C@@H](CC(C)C)NC(=O)[C@@H](Cc1c[nH]c2ccccc12)NC(=O)[C@@H](Cc1c[nH]c2ccccc12)NC(=O)CNC(=O)[C@@H](CCCNC(=N)N)NC(=O)CNC(=O)[C@@H](CC(=O)O)NC(=O)[C@@H](CO)NC(=O)[C@H]1CCCN1)C(=O)N[C@H](C)C(=O)N[C@H](CCC(N)=O)C(=O)N[C@H](CC(C)C)C(=O)N[C@H](C)C(=O)N[C@H](CCCCN)C(=O)N[C@H](CC(C)C)C(=O)N[C@@H](C(=O)N1CCC[C@@H]1C(=O)N[C@@H](C(=O)O)C(C)C)[C@H](C)O [BCL-134, reference compound] (H-[dP][dS][dD]G[dR]G[dW][dW][dL][dA][dA][dQ][dL][dA][dA][dL][dA][dQ][dL][dA][dK][dL][dT][dP][dV]-OH; N-terminus and C-terminus assumed) | > 80 µM | cytotoxic activity [1]: Lack of cytotoxic activity |
| CCCCCCCC(=O)N1CCC[C@@H]1C(=O)N[C@H](CO)C(=O)N[C@H](CC(=O)O)C(=O)NCC(=O)N[C@H](CCCNC(=N)N)C(=O)NCC(=O)N[C@H](Cc1c[nH]c2ccccc12)C(=O)N[C@H](Cc1c[nH]c2ccccc12)C(=O)N[C@H](CC(C)C)C(=O)N[C@H](C)C(=O)N[C@H](CCCNC(=N)N)C(=O)N[C@H](CCC(N)=O)C(=O)N[C@H](CC(C)C)C(=O)N[C@H](C)C(=O)N[C@H](CCCNC(=N)N)C(=O)N[C@H](CC(C)C)C(=O)N[C@H](C)C(=O)N[C@H](CCC(N)=O)C(=O)N[C@H](CC(C)C)C(=O)N[C@H](C)C(=O)N[C@H](CCCCN)C(=O)N[C@H](CC(C)C)C(=O)N[C@@H](C(=O)N1CCC[C@@H]1C(=O)N[C@@H](C(=O)O)C(C)C)[C@H](C)O [BCL-135] (Octanoyl-[dP][dS][dD]G[dR]G[dW][dW][dL][dA][dR][dQ][dL][dA][dR][dL][dA][dQ][dL][dA][dK][dL][dT][dP][dV]-OH; C-terminus assumed) | 2 to 10 µM | – |
| CCCCCCCC(=O)N1CCC[C@@H]1C(=O)N[C@H](CO)C(=O)N[C@H](CC(=O)O)C(=O)NCC(=O)N[C@H](CCCNC(=N)N)C(=O)NCC(=O)N[C@H](Cc1c[nH]c2ccccc12)C(=O)N[C@H](Cc1c[nH]c2ccccc12)C(=O)N[C@H](CC(C)C)C(=O)N[C@@H](C(=O)N[C@H](CCCNC(=N)N)C(=O)N[C@H](CCC(N)=O)C(=O)N[C@H](CC(C)C)C(=O)N[C@H](C)C(=O)N[C@H](CCCNC(=N)N)C(=O)N[C@H](CC(C)C)C(=O)N[C@H](C)C(=O)N[C@H](CCC(N)=O)C(=O)N[C@H](CC(C)C)C(=O)N[C@H](C)C(=O)N[C@H](CCCCN)C(=O)N[C@H](CC(C)C)C(=O)N[C@@H](C(=O)N1CCC[C@@H]1C(=O)N[C@@H](C(=O)O)C(C)C)[C@H](C)O)C(C)C [BCL-136a] (Octanoyl-[dP][dS][dD]G[dR]G[dW][dW][dL][dV][dR][dQ][dL][dA][dR][dL][dA][dQ][dL][dA][dK][dL][dT][dP][dV]-OH; C-terminus assumed) | < 2 µM | – |
| CC(C)C[C@@H](NC(=O)[C@@H](CCCN)NC(=O)[C@@H](C)NC(=O)[C@@H](CC(C)C)NC(=O)[C@@H](CCC(N)=O)NC(=O)[C@@H](CCCN)NC(=O)[C@@H](C)NC(=O)[C@@H](CC(C)C)NC(=O)[C@@H](Cc1c[nH]c2ccccc12)NC(=O)[C@@H](Cc1c[nH]c2ccccc12)NC(=O)CNC(=O)[C@@H](CCCNC(=N)N)NC(=O)CNC(=O)[C@@H](CC(=O)O)NC(=O)[C@@H](CO)NC(=O)[C@H]1CCCN1)C(=O)N[C@H](C)C(=O)N[C@H](CCC(N)=O)C(=O)N[C@H](CC(C)C)C(=O)N[C@H](C)C(=O)N[C@H](CCCN)C(=O)N[C@H](CC(C)C)C(=O)N[C@@H](C(=O)N1CCC[C@@H]1C(=O)N[C@@H](C(=O)O)C(C)C)[C@H](C)O [BCL-137] (H-[dP][dS][dD]G[dR]G[dW][dW][dL][dA][dOrn][dQ][dL][dA][dOrn][dL][dA][dQ][dL][dA][dOrn][dL][dT][dP][dV]-OH; N-terminus and C-terminus assumed) | < 2 µM | – |
| CCCCCCCC(=O)N[C@H](CC(C)C)C(=O)N[C@@H](C(=O)N[C@H](CCCNC(=N)N)C(=O)N[C@H](CCC(N)=O)C(=O)N[C@H](CC(C)C)C(=O)N[C@H](C)C(=O)N[C@H](CCCNC(=N)N)C(=O)N[C@H](CC(C)C)C(=O)N[C@H](C)C(=O)N[C@H](CCC(N)=O)C(=O)N[C@H](CC(C)C)C(=O)N[C@H](C)C(=O)N[C@H](CCCCN)C(=O)N[C@H](CC(C)C)C(=O)N[C@@H](C(=O)N1CCC[C@@H]1C(=O)N[C@@H](C(=O)O)C(C)C)[C@H](C)O)C(C)C [BCL-138] (Octanoyl-[dL][dV][dR][dQ][dL][dA][dR][dL][dA][dQ][dL][dA][dK][dL][dT][dP][dV]-OH; C-terminus assumed) | > 80 µM | cytotoxic activity [1]: Lack of cytotoxic activity |
| CC(C)C[C@@H](NC(=O)[C@@H](CCCNC(=N)N)NC(=O)[C@@H](C)NC(=O)[C@@H](CC(C)C)NC(=O)[C@@H](CCC(N)=O)NC(=O)[C@@H](CCCNC(=N)N)NC(=O)[C@H](NC(=O)[C@@H](CC(C)C)NC(=O)[C@@H](Cc1c[nH]c2ccccc12)NC(=O)[C@H](Cc1c[nH]c2ccccc12)NC(=O)CNC(=O)[C@@H](CCCNC(=N)N)NC(=O)CNC(=O)[C@@H](CC(=O)O)NC(=O)[C@@H](CO)NC(=O)[C@H]1CCCN1)C(C)C)C(=O)N[C@H](C)C(=O)N[C@H](CCC(N)=O)C(=O)N[C@H](CC(C)C)C(=O)N[C@H](C)C(=O)N[C@H](CCCCN)C(=O)N[C@H](CC(C)C)C(=O)N[C@@H](C(=O)N1CCC[C@@H]1C(=O)N[C@@H](C(=O)O)C(C)C)[C@H](C)O [BCL-139] (H-[dP][dS][dD]G[dR]GW[dW][dL][dV][dR][dQ][dL][dA][dR][dL][dA][dQ][dL][dA][dK][dL][dT][dP][dV]-OH; N-terminus and C-terminus assumed) | < 2 µM | – |
